From patent publication US10905739B2, “Peptidomimetic macrocycles and formulations thereof” (AILERON THERAPEUTICS, INC., priority 2014, dated 2021)
≈ marks a conversion by molar mass, not a printed value. Read-outs that look alike come from different tables or passages of the source. Bridge positions count the residues as written; N and C are the ends. Square brackets hold non-standard residues; d marks the D form. Peptide text beside a SMILES is read from it. dPhe(4-CF3) = N[C@H](Cc1ccc(C(F)(F)F)cc1)C(=O)O; Phe(4-F) = N[C@@H](Cc1ccc(F)cc1)C(=O)O; R8 = C=CCCCCCC[C@@](C)(N)C(=O)O; S8 = C=CCCCCCC[C@](C)(N)C(=O)O; R5 = C=CCCC[C@@](C)(N)C(=O)O; hLeu = CC(C)CC[C@H](N)C(=O)O; S5 = C=CCCC[C@](C)(N)C(=O)O; Nle = CCCC[C@H](N)C(=O)O; Aib = CC(C)(N)C(=O)O

Experiments:
SJSA-1 cells = assay: SJSA-1 sarcoma cell killing / cell viability; assay type: cell-based; conditions: 10% serum
BCL-XL = BCL-XL (Homo sapiens, UniProt Q07817); assay: BCL-XL binding IC50
From the text: In one aspect, the present invention provides novel peptidomimetic macrocycles that are useful in competitive binding assays to identify agents which bind to the natural ligand(s) of the proteins or peptides upon which the peptidomimetic macrocycles are modeled. For example, in the BH3/BCL-XL anti-apoptotic system labeled peptidomimetic macrocycles based on BH3 can be used in a BCL-XL binding assay along with small molecules that competitively bind to BCL-XL. Competitive binding studies allow for rapid in vitro evaluation and determination of drug candidates specific for the BH3/BCL-XL system. The invention further provides for the generation of antibodies against the peptidomimetic macrocycles. In some embodiments, these antibodies specifically bind both the peptidomimetic macrocycle and the BH3 peptidomimetic precursors upon which the peptidomimetic macrocycles are derived. Such antibodies, for example, disrupt the BH3/BCL-XL systems, respectively.

Raji Cell = conditions: read-out: Raji Cell Viability EC50; 5% serum, 48 hr
Method: The efficacy of certain peptidomimetic macrocycles is determined, for example, in cell-based killing assays using a variety of tumorigenic and non-tumorigenic cell lines and primary cells derived from human or mouse cell populations. […] Several standard assays that measure cell viability are commercially available and are optionally used to assess the efficacy of the peptidomimetic macrocycles. In addition, assays that measure Annexin V and caspase activation are optionally used to assess whether the peptidomimetic macrocycles kill cells by activating the apoptotic machinery. For example, the Cell Titer-glo assay is used which determines cell viability as a function of intracellular ATP concentration.

MCL-1 = MCL-1 (Homo sapiens, UniProt Q07820); assay: biochemical
From the text: To assess the binding and affinity of compounds that antagonize the interaction between a peptide and an acceptor protein, a fluorescence polarization assay (FPA) utilizing a fluoresceinated peptidomimetic macrocycle derived from a peptidomimetic precursor sequence is used, for example. The FPA technique measures the molecular orientation and mobility using polarized light and fluorescent tracer. […] A compound that antagonizes the interaction between the fluoresceinated peptidomimetic macrocycle and an acceptor protein will be detected in a competitive binding FPA experiment.
Antagonist binding activity is measured, for example, by fluorescence polarization on a luminescence spectrophotometer (e.g. Perkin-Elmer LS50B). Kd values can be determined by nonlinear regression analysis using, for example, Graphpad Prism software (GraphPad Software, Inc., San Diego, Calif.).

[1] = Aqueous solubility (turbidity of solution); assay type: physicochemical
Method: In some embodiments, the peptidomimetic macrocycle or pharmaceutically acceptable salt thereof is not precipitated in the formulation. In some embodiments, an aqueous solubility of the peptidomimetic macrocycle is determined by evaluating the turbidity of a solution comprising the peptidomimetic macrocycle. In some embodiments, the peptidomimetic macrocycle or pharmaceutically acceptable salt thereof has an amphipathicity that falls in a range that is optimal for cell permeability.
In some embodiments, a peptidomimetic macrocycle with enhanced cell penetrability can be prepared based on solubility of the polypeptide, for example if the prepared peptidomimetic macrocycle is determined to be soluble based on visual examination of the turbidity of a solution of the polypeptide.

[2] = tested on: Influenza A Virus H1N1 California/07/2009; conditions: Virus California/07/2009
MDM2 = MDM2 (Homo sapiens, UniProt Q00987); assay: MDM2 binding IC50/Ki (in vitro displacement, fluorescence polarization)
Sequence of MDM2 (Q00987 whole entry): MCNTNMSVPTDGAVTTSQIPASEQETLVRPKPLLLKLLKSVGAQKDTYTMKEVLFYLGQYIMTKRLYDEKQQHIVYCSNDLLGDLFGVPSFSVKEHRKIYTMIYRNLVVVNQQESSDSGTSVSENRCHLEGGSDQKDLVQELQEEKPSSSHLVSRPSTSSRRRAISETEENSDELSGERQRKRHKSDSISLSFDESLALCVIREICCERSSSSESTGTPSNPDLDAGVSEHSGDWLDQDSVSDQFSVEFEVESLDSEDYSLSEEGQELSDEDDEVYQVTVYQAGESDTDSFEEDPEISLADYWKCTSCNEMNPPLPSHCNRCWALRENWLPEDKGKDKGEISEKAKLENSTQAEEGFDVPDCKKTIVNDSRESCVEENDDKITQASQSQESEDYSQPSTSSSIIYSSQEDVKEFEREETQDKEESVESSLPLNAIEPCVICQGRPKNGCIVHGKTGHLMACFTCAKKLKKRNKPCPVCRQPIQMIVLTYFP

Sequence of MCL-1 (Q07820 whole entry): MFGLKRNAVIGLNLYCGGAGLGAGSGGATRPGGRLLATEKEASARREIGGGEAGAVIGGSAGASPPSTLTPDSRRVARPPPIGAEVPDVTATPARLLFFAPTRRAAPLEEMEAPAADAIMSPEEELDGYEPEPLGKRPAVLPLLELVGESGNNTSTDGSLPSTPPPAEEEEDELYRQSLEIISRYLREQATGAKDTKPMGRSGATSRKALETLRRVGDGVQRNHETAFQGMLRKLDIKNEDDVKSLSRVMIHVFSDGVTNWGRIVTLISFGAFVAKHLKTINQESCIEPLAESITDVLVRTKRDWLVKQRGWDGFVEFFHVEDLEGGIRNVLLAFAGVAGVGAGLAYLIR
Sequence of BCL-XL (Q07817 whole entry): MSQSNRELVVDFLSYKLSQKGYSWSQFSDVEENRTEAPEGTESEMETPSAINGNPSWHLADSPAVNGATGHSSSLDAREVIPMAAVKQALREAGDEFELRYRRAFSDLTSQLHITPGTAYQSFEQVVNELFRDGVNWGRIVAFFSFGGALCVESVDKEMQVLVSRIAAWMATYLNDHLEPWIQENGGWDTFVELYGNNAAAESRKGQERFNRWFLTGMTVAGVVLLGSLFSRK

## CC(=O)N[C@@H](C(=O)N[C@H](C)C(=O)N[C@H](Cc1c[nH]c2ccccc12)C(=O)N[C@H](Cc1ccc(O)cc1)C(=O)N[C@H](C)C(=O)N[C@H](CC(N)=O)C(=O)N[C@H](Cc1ccccc1)C(=O)N[C@H](CCC(=O)O)C(=O)N[C@H](CCCCN)C(=O)N[C@H](CC(C)C)C(=O)N[C@H](CC(C)C)C(=O)N[C@H](CCCNC(=N)N)C(N)=O)[C@H](C)O [SP778, Ac-tawyanfekllr-NH2, reference compound] (Ac-[dT][dA][dW][dY][dA][dN][dF][dE][dK][dL][dL][dR]-NH2)
SJSA-1 cells; 72 hr (Table 1f)
  EC50: > 30000 nM

## CC[C@H](C)[C@H](NC(C)=O)C(=O)N[C@@H](Cc1c[nH]c2ccccc12)C(=O)N[C@H](C(=O)N[C@@H](C)C(=O)N[C@@H](CCC(N)=O)C(=O)N[C@@H](C)C(=O)N[C@@H](CC(C)C)C(=O)N[C@@H](CCCNC(=N)N)C(=O)N[C@]1(C)CCCCCCC=CCCC[C@@](C)(C(=O)N[C@@H](Cc2ccc(O)cc2)C(=O)N[C@@H](Cc2ccc(O)cc2)C(=O)N[C@@H](C)C(N)=O)NC(=O)[C@H](CC(N)=O)NC(=O)[C@H](Cc2ccccc2)NC(=O)[C@H](C)NC(=O)[C@H](CC(=O)O)NC(=O)CNC(=O)[C@H]([C@@H](C)CC)NC1=O)[C@@H](C)CC [SP815] (Ac-IWIAQALR[R8]IGDAFN[S5]YYA-NH2; staple 9-16)
BCL-XL
  IC50: 22.4 nM
Raji Cell
  EC50: 6600 nM
MCL-1
  IC50: 8.4 nM

## CC(=O)N[C@@H](C(=O)N[C@H](C)C(=O)N[C@H](Cc1c[nH]c2ccccc12)C(=O)N[C@H](Cc1ccc(O)cc1)C(=O)N[C@@]1(C)CCCCCCC=CCCC[C@](C)(C(=O)N[C@H](C)C(N)=O)NC(=O)[C@@H](CC(C)C)NC(=O)[C@@H](CC(C)C)NC(=O)[C@@H](CCCCN)NC(=O)[C@@H](CCC(=O)O)NC(=O)[C@@H](Cc2ccc(C(F)(F)F)cc2)NC(=O)[C@@H](CC(N)=O)NC1=O)[C@H](C)O [SP757, Ac-tawy$s8nf4CF3ekll$r5a-NH2] (Ac-[dT][dA][dW][dY][S8][dN][dPhe(4-CF3)][dE][dK][dL][dL][R5][dA]-NH2; staple 5-12)
SJSA-1 cells; 72 hr (Table 1f)
  EC50: 1500 nM

## CC(=O)N[C@@H](CC(C)C)C(=O)N[C@H](C(=O)N[C@@H](Cc1ccccc1)C(=O)NC1(C)CCCCCCC=CCCCC(C)(C(=O)N[C@@H](C)C(=O)N[C@@H](C)C(=O)N[C@@H](C)C(=O)N[C@@H](C)C(=O)N[C@@H](C)C(=O)N[C@@H](C)C(=O)N[C@H](C)C(N)=O)NC(=O)[C@H](CC(C)C)NC(=O)[C@H](CCC(N)=O)NC(=O)[C@H](C)NC(=O)[C@H](Cc2c[nH]c3ccccc23)NC(=O)[C@H](Cc2ccc(O)cc2)NC(=O)[C@H](C)NC1=O)[C@@H](C)O (stereo partly drawn) [SP317]
[1]; read-out: Solubility
  solubility: 5000 µg/mL (≈ 2570 µM)

## CCCC[C@H](NC(C)=O)C(=O)N[C@@H](CC(=O)O)C(=O)N[C@H](C(=O)N[C@@H](CC(N)=O)C(=O)N[C@@]1(C)CCCC=CCCC[C@@](C)(C(=O)N[C@@H](CC(C)C)C(=O)N[C@@H](C)C(=O)N[C@H](C(=O)NC(C)(C)C(=O)N[C@@H](C)C(=O)N[C@@H](CCC(N)=O)C(N)=O)C(C)C)NC(=O)[C@H](CC(C)C)NC(=O)[C@H](CC(C)C)NC(=O)[C@H]([C@@H](C)O)NC1=O)C(C)C [SP786] (Ac-[Nle]DVN[S5]TLL[S5]LAV[Aib]AQ-NH2; staple 5-9; C-terminus assumed)
[2]
  EC50: 23000 nM

## CC[C@H](C)[C@H](NC(C)=O)C(=O)N[C@@H](Cc1c[nH]c2ccccc12)C(=O)N[C@H](C(=O)N[C@@H](C)C(=O)N[C@@H](CCC(N)=O)C(=O)N[C@@H](CCC(=O)O)C(=O)N[C@@H](CC(C)C)C(=O)N[C@@H](CCCNC(=N)N)C(=O)N[C@]1(C)CCCCCCC=CCCC[C@@](C)(C(=O)N[C@@H](Cc2ccc(O)cc2)C(=O)N[C@@H](Cc2ccc(O)cc2)C(=O)N[C@@H](C)C(=O)N[C@@H](CCCNC(=N)N)C(=O)N[C@@H](CCCNC(=N)N)C(N)=O)NC(=O)[C@H](CC(N)=O)NC(=O)[C@H](Cc2ccccc2)NC(=O)[C@H](CCC(=O)O)NC(=O)[C@H](CC(=O)O)NC(=O)CNC(=O)[C@H]([C@@H](C)CC)NC1=O)[C@@H](C)CC [SP810]
BCL-XL
  IC50: 9.2 nM
Raji Cell
  EC50: > 30000 nM

## CCCC[C@H](NC(C)=O)C(=O)N[C@@H](CC(=O)O)C(=O)N[C@H](C(=O)N[C@@H](CC(N)=O)C(=O)N[C@]1(C)CCCCCCC=CCCC[C@@](C)(C(=O)N[C@@H](C)C(=O)N[C@@H](C)C(=O)N[C@@H](CCC(N)=O)C(N)=O)NC(=O)[C@H](C)NC(=O)[C@H](CC(C)C)NC(=O)[C@H](Cc2ccccc2)NC(=O)[C@H](CC(C)C)NC(=O)[C@H](CC(C)C)NC(=O)[C@H]([C@@H](C)O)NC1=O)C(C)C [SP798] (Ac-[Nle]DVN[R8]TLLFLA[S5]AAQ-NH2; staple 5-12)
[2]
  EC50: 4500 nM

## CC[C@H](C)[C@H](NC(C)=O)C(=O)N[C@@H](Cc1c[nH]c2ccccc12)C(=O)N[C@H](C(=O)N[C@@H](C)C(=O)N[C@@H](CCC(N)=O)C(=O)N[C@@H](C)C(=O)N[C@@H](CC(C)C)C(=O)N[C@@H](CCCNC(=N)N)C(=O)N[C@]1(C)CCCCCCC=CCCC[C@@](C)(C(=O)N[C@@H](Cc2ccc(O)cc2)C(=O)N[C@@H](Cc2ccc(O)cc2)C(=O)N[C@@H](C)C(=O)N[C@@H](CCCNC(=N)N)C(=O)N[C@@H](CCCNC(=N)N)C(N)=O)NC(=O)[C@H](CC(N)=O)NC(=O)[C@H](Cc2ccccc2)NC(=O)[C@H](CCC(=O)O)NC(=O)[C@H](CC(=O)O)NC(=O)CNC(=O)[C@H]([C@@H](C)CC)NC1=O)[C@@H](C)CC [SP809] (Ac-IWIAQALR[R8]IGDEFN[S5]YYARR-NH2; staple 9-16)
BCL-XL
  IC50: 3.9 nM
Raji Cell
  EC50: > 30000 nM
MCL-1
  IC50: 10.6 nM

## CCCC[C@H](NC(=O)[C@H](C)NC(=O)[C@H](C)NC(=O)[C@]1(C)CCCC=CCCCCCC[C@@](C)(NC(=O)[C@H](Cc2ccccc2)NC(=O)[C@@H](NC(=O)[C@H](CC(C)C)NC(C)=O)[C@@H](C)O)C(=O)N[C@@H](C)C(=O)N[C@@H](Cc2ccc(O)cc2)C(=O)N[C@@H](Cc2c[nH]c3ccccc23)C(=O)N[C@@H](C)C(=O)N[C@@H](CCC(N)=O)C(=O)N[C@@H](CC(C)C)C(=O)N1)C(=O)N[C@@H](C)C(N)=O [SP68]
SJSA-1 cells; 72 hr (Table 1d)
  EC50: 1120 nM
MDM2
  IC50: 29 nM
[1]; aqueous solution, read-out: Solubility
  solubility: 3000 µg/mL (≈ 1690 µM)

## CC(=O)N[C@@H](CC(C)C)C(=O)N[C@H](C(=O)N[C@@H](Cc1ccccc1)C(=O)N[C@]1(C)CCCCCCC=CCCC[C@@](C)(C(=O)N[C@@H](C)C(N)=O)NC(=O)[C@H](CC(C)C)NC(=O)[C@H](CCC(N)=O)NC(=O)[C@H](C)NC(=O)[C@H](Cc2c[nH]c3ccccc23)NC(=O)[C@H](Cc2ccc(O)cc2)NC(=O)[C@H](C)NC1=O)[C@@H](C)O [SP590, Ac-LTF$r8AYWAQL$A-NH2] (Ac-LTF[R8]AYWAQL[S5]A-NH2; staple 4-11)
SJSA-1 cells; 72 hr (Table 1d)
  EC50: 6000 nM
[1]
  solubility: ≤ 1000 µg/mL

## CC[C@H](C)[C@H](NC(C)=O)C(=O)N[C@@H](Cc1c[nH]c2ccccc12)C(=O)N[C@H](C(=O)N[C@@H](C)C(=O)N[C@@H](CCC(N)=O)C(=O)N[C@@H](C)C(=O)N[C@@H](CC(C)C)C(=O)N[C@@H](CCCNC(=N)N)C(=O)N[C@]1(C)CCCCCCC=CCCC[C@@](C)(C(=O)N[C@@H](Cc2ccc(O)cc2)C(=O)N[C@@H](Cc2ccc(F)cc2)C(=O)N[C@@H](C)C(N)=O)NC(=O)[C@H](CC(N)=O)NC(=O)[C@H](Cc2ccccc2)NC(=O)[C@H](C)NC(=O)[C@H](CC(=O)O)NC(=O)CNC(=O)[C@H](CCC(C)C)NC1=O)[C@@H](C)CC [SP962] (Ac-IWIAQALR[R8][hLeu]GDAFN[S5]Y[Phe(4-F)]A-NH2; staple 9-16)
BCL-XL
  IC50: 13 nM
Raji Cell
  EC50: 700 nM
MCL-1
  IC50: 27 nM
